This note sets out measurements from ChEMBL document CHEMBL2021885, “Triphenylbutanamines: kinesin spindle protein inhibitors with in vivo antitumor activity” (J Med Chem, 2012).

Each structure is given as a SMILES string. ≈ marks a conversion by molar mass, not a printed value.

The nature of data set [1]: Intrinsic clearance in human hepatocytes assessed as per million cells. It is filed as ADME, cell-based, Hepatocyte.
Data set [2] in a line: Antiproliferative activity against human hTERT-HME1 cells after 72 hrs by Alamar blue assay. Type of data set: cell-based. (The colour change of resazurin is a common sign of viable cells or microbes.)
The subject of another data set is Liver microsomes. Kind of data set: Intrinsic clearance in human liver microsomes assessed as per mg of protein. It is filed as ADME, Microsome. (Liver microsomes are a subcellular fraction often used to study metabolism.)
Data set [3] can be described thus: Dissociation constant, pKa of the compound. Type of data set: physicochemical.
The nature of data set [4]: Lipophilicity, Log P of the compound. As to conditions: octanol/water. Type of data set: physicochemical.
A further data set relates to K562. Briefly: cells. As to conditions: Homo sapiens, K562, 72 h.
A further data set concerns Liver. Kind of data set: Intrinsic clearance in mouse liver microsomes assessed as per mg of protein. Type of data set: ADME, Microsome.
Data set [5] can be described thus: Distribution coefficient, log D of the compound at pH 7.4. It is filed as physicochemical. As to conditions: octanol/water.
A short description of data set [6]: Turbidimetric solubility of the compound at pH 7.4. Type of data set: physicochemical. As to conditions: buffer.
A short description of data set [7]: Turbidimetric solubility of the compound at pH 2. Type of data set: physicochemical. As to conditions: buffer.
Data set [8] can be described thus: Turbidimetric solubility of the compound at pH 6. Type of data set: physicochemical. As to conditions: buffer.

Description for K562: Antiproliferative activity against human K562 cells after 72 hrs by Alamar blue assay

For `Cc1ccc(C(=O)N(CCCN)[C@@H](c2nc3cc(Cl)ccc3c(=O)n2Cc2ccccc2)C(C)C)cc1` [ISPINESIB], the results for the CLH (in [1]; in the data set on Liver microsomes; with Liver) were 0.75 µL/min, “Stable” and “Stable”, respectively. Further, the GI50 – broadly, the concentration at which growth is held to half of that of the control – at 72 h in data set [2] amounted to 32 nM. The pKa (in general, the pH at which an ionisable group is half protonated) in [3] stood at 9.34. Besides, the logP (commonly a log measure of how a compound divides between an organic and an aqueous phase) in data set [4] worked out at 4.75. The same compound came in with a GI50 with K562 of 71 nM. Besides, the logD – broadly, lipophilicity at a set pH, counting ionised and neutral species – in data set [5] stood at 2.66.
With `Cc1cccc(C(CCCN)(c2ccccc2)c2ccccc2)c1`, the figures for the CLH (in data set [1]; in the data set with Liver microsomes) were 3.93 µL/min and “Stable”, respectively. This compound also registered a GI50 at 72 h in data set [2] of 150 nM. Moreover, the pKa in [3] stood at 10.1. Besides, the solubility (kinetic) in [6], in data set [7] and in data set [8] was above 100 µM in each case. Further, the logP in data set [4] came out at 4.69. In [5], this compound yielded a logD of 2.33.
`CCCc1cccc(C(SCCN)(c2ccccc2)c2ccccc2)c1`: the solubility (kinetic) – broadly, the concentration staying in solution when a stock, usually in DMSO, is diluted into the medium – in the data set “physchem” was determined as 3.75 µM (≈ 1.36 µg/mL). In the data set on K562, this compound returned a 50% growth inhibitory concentration (GI50) of 1760 nM.
